Experimental findings from patent publication US6534524B1, “Indazole compounds and pharmaceutical compositions for inhibiting protein kinases, and methods for their use” (Agouron Pharmaceuticals, Inc., priority 1999, dated 2003) are described below.

SMILES strings stand for the structures. Where only a bound is given, the exact number is not on record here.

In general, % inhibition refers to the drop in the measured response relative to a control, in per cent. As usually defined, the IC50 is the concentration that inhibits the measured activity by half.

For the test, the system named is human umbilical vein endothelial cells (HUVEC). As to the kind of experiment: HUVEC proliferation assay (VEGF-stimulated, MTT).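 As to % inhibition of the proliferation of HUVEC: relative to VEGF-stimulated control minus starvation-medium baseline.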 Type of test: cell-based. Particulars: for % inhibition of the proliferation of HUVEC / % inhibition: crude reaction mixtures; for % inhibition: Library III, HUVEC proliferation, nominal concentration of 0.5 nM.
[1] abbreviates: Library II, Y=S, 0.5 mM (column head; text: nominal 0.5 nM).
Where [2] appears, read: Library II, Y=S, 2 mM (column head; text: nominal 2 nM).
Where [3] appears, read: Library I, Y = CO, nominal concentration of 10 nM.
The mark [4] stands for this setting: Library I, Y = NH, nominal concentration of 10 nM.
The mark [5] stands for this setting: Library I, Y = O, nominal concentration of 10 nM.

Regarding `COCCNC(=O)c1ccccc1Sc1ccc2c(/C=C/c3ccccn3)n[nH]c2c1`, the “% inhibition of the proliferation of HUVEC” value (“% inhibition … of HUVEC” below) under setting [1] was 21% and the “% inhibition … of HUVEC” value under setting [2] is on record as 60%.

For `CC(C)(CO)NC(=O)c1ccccc1Sc1ccc2c(/C=C/c3ccccn3)n[nH]c2c1`, the “% inhibition” value is given as −2%. For `O=C(Nc1cccc2cnccc12)c1ccccc1Sc1ccc2c(/C=C/c3ccccn3)n[nH]c2c1`, the “% inhibition” value was 1%. Turning to `CC(C)(C)CNC(=O)c1ccccc1Sc1ccc2c(/C=C/c3ccccn3)n[nH]c2c1` [drawing 728], the “% inhibition … of HUVEC” value under setting [1] came out at 19% and the “% inhibition … of HUVEC” value under setting [2] is given as 24%. For `O=C(NC1CC1)c1ccccc1Sc1ccc2c(/C=C/c3ccccn3)n[nH]c2c1` [drawing 1069], the “% inhibition” value was 29%. On the same count and under the same terms, as for `O=C(NCC1CCCCC1)c1ccccc1Sc1ccc2c(/C=C/c3ccccn3)n[nH]c2c1`, the figure is 3%. Regarding `COc1ccc(CNC(=O)c2ccccc2Sc2ccc3c(/C=C/c4ccccn4)n[nH]c3c2)cc1OC`, the “% inhibition” value is given as 7%.

As for `COc1cc(NC(=O)c2ccccc2Sc2ccc3c(/C=C/c4ccccn4)n[nH]c3c2)cc(C(F)(F)F)c1`, the “% inhibition” value is reported as 10%.

In the case of `O=C(Nc1ncc(Cl)cc1Cl)c1ccccc1Sc1ccc2c(/C=C/c3ccccn3)n[nH]c2c1`, the “% inhibition” value amounted to 4%. As for `O=C(CNC(=O)c1ccccc1Sc1ccc2c(/C=C/c3ccccn3)n[nH]c2c1)NO`, the “% inhibition … of HUVEC” value is, setting by setting: under setting [1], 5%; under setting [2], 9%. Consider `O=C(Nc1ccc2ccccc2n1)c1ccccc1Sc1ccc2c(/C=C/c3ccccn3)n[nH]c2c1`, for which the “% inhibition” value amounted to 18%. Take `CNC(=O)c1ccccc1Sc1ccc2c(/C=C/c3ccccn3)n[nH]c2c1` [drawing 635]: the “% inhibition … of HUVEC” value runs as follows: under setting [1], 8%; under setting [2], 21%. In the case of `CN(C)CCCCCCNC(=O)c1ccccc1Sc1ccc2c(/C=C/c3ccccn3)n[nH]c2c1`, the “% inhibition … of HUVEC” value turned out to be 42% under setting [1] and 22% under setting [2].

Turning to `Cc1cccc2sc(NC(=O)c3ccccc3Sc3ccc4c(/C=C/c5ccccn5)n[nH]c4c3)nc12`, the “% inhibition” value is given as −13%. For `Cc1oc(NC(=O)c2ccccc2Sc2ccc3c(/C=C/c4ccccn4)n[nH]c3c2)c(C#N)c1C`, the “% inhibition” value amounted to 13%. Turning to `O=C(NCc1cccs1)c1ccccc1Sc1ccc2c(/C=C/c3ccccn3)n[nH]c2c1`, the “% inhibition” value is given as 23%. As for `COc1ccc(CNC(=O)c2ccccc2Sc2ccc3c(/C=C/c4ccccn4)n[nH]c3c2)c(OC)c1`, the “% inhibition” value is 13%. `CCc1ccc(C)nc1NC(=O)c1ccccc1Sc1ccc2c(/C=C/c3ccccn3)n[nH]c2c1`: the “% inhibition” value was −23%.

Regarding `NC(=O)c1ccccc1Sc1ccc2c(/C=C/c3ccccn3)n[nH]c2c1` [H-X1], the “% inhibition … of HUVEC” value under setting [1] stood at 9%. Regarding `COc1cccc(CCNC(=O)c2ccccc2Sc2ccc3c(/C=C/c4ccccn4)n[nH]c3c2)c1`, the “% inhibition” value stood at 8%.

`COc1ccc(NC(=O)c2ccc3c(-c4nc5ccccc5[nH]4)n[nH]c3c2)cc1O` [drawing 607]: the “% inhibition … of HUVEC” value was determined as 19% under setting [1] and 89% under setting [2].

As for `CCc1cccc(CC)c1NC(=O)c1ccccc1Sc1ccc2c(/C=C/c3ccccn3)n[nH]c2c1`, the “% inhibition” value is given as −17%. For `CN(C)c1ccc(NC(=O)c2ccccc2Sc2ccc3c(/C=C/c4ccccn4)n[nH]c3c2)cc1`, the “% inhibition” value was 18%. For the compound `O=C(Nc1cccnc1Cl)c1ccccc1Sc1ccc2c(/C=C/c3ccccn3)n[nH]c2c1`, the “% inhibition” value was determined as 2%. Turning to `CN(NC(=O)c1ccccc1Sc1ccc2c(/C=C/c3ccccn3)n[nH]c2c1)c1ccccc1`, the “% inhibition … of HUVEC” value amounted to 16% under setting [1] and 37% under setting [2]. With `CNC(=O)c1cccc(F)c1Sc1ccc2c(/C=C/c3ccccn3)n[nH]c2c1` [Example 37(d), 6-[6-Fluoro-2-(methylcarbamoyl)phenylsulfanyl]-3-E-[2-(pyridin-2-yl)ethenyl]-1H-indazole], the IC50 (Homo sapiens, HUVEC, + albumin, read-out: HUVEC + albumin IC50) was over 100 nM. As to `Cc1ccc(CO)cc1NC(=O)c1ccccc1Sc1ccc2c(/C=C/c3ccccn3)n[nH]c2c1`, the “% inhibition” value is listed as 1%. As for `COc1ccc(NC(=O)c2ccccc2Sc2ccc3c(/C=C/c4ccccn4)n[nH]c3c2)c(C)c1`, the “% inhibition” value was 0%. Take `CC(=O)c1ccccc1NC(=O)c1ccccc1Sc1ccc2c(/C=C/c3ccccn3)n[nH]c2c1`: the “% inhibition” value is −7%. Same read-out and setting: as for `NC(=O)c1[nH]cnc1NC(=O)c1ccccc1Sc1ccc2c(/C=C/c3ccccn3)n[nH]c2c1`, the figure is −1%. Turning to `O=C(NCc1ccc(F)c(F)c1)c1ccccc1Sc1ccc2c(/C=C/c3ccccn3)n[nH]c2c1`, the “% inhibition” value amounted to 0%. Regarding `CCNC(=O)c1ccccc1Sc1ccc2c(/C=C/c3ccccn3)n[nH]c2c1` [drawing 696], the “% inhibition … of HUVEC” value under setting [1] was determined as 16% and the “% inhibition … of HUVEC” value under setting [2] came out at 17%. Consider `COc1cc(NC(=O)c2ccccc2Sc2ccc3c(/C=C/c4ccccn4)n[nH]c3c2)cc(OC)c1`, for which the “% inhibition” value is listed as −60%.

On to `O=C(Nc1cc(-c2cccs2)n[nH]1)c1ccccc1Sc1ccc2c(/C=C/c3ccccn3)n[nH]c2c1`, for which the “% inhibition” value is reported as −11%. As to `O=C(c1ccc2c(-c3nc4ccccc4[nH]3)n[nH]c2c1)N1CCOCC1`, the “% inhibition … of HUVEC” value runs as follows: under setting [3], 10%; under setting [4], −7%; under setting [5], 59%. For `CN(C)C(=O)c1ccc2c(-c3nc4ccccc4[nH]3)n[nH]c2c1` the same measures were 35%, −9% and 42%.

`O=C(Nc1ccc(O)cc1)c1ccc2c(-c3nc4ccccc4[nH]3)n[nH]c2c1` [drawing 585]: the “% inhibition … of HUVEC” value is, setting by setting: under setting [3], 33%; under setting [4], 3%; under setting [5], 32%. On to `CC(C)CCNC(=O)c1ccccc1Sc1ccc2c(/C=C/c3ccccn3)n[nH]c2c1` [drawing 614], for which the “% inhibition … of HUVEC” value by setting is: under setting [1], 14%; under setting [2], 55%.

As for `COc1cccc(C)c1NC(=O)c1ccccc1Sc1ccc2c(/C=C/c3ccccn3)n[nH]c2c1`, the “% inhibition” value turned out to be 8%. `CC(C)(C)c1ccc(O)c(NC(=O)c2ccccc2Sc2ccc3c(/C=C/c4ccccn4)n[nH]c3c2)c1`: the “% inhibition” value is reported as −3%.

On to `COC(OC)C(C)NC(=O)c1ccccc1Sc1ccc2c(/C=C/c3ccccn3)n[nH]c2c1` (stereo not drawn), for which the “% inhibition” value came out at 0%.

With `CC(C)(CO)CNC(=O)c1ccccc1Sc1ccc2c(/C=C/c3ccccn3)n[nH]c2c1`, the “% inhibition … of HUVEC” value under setting [1] was determined as 8% and the “% inhibition … of HUVEC” value under setting [2] amounted to 22%. The corresponding values for `NC(=O)CCNC(=O)c1ccccc1Sc1ccc2c(/C=C/c3ccccn3)n[nH]c2c1` are 8% and 18%.

For `COc1cccc(CNC(=O)c2ccccc2Sc2ccc3c(/C=C/c4ccccn4)n[nH]c3c2)c1OC`, the “% inhibition” value was 10%. Take `Cc1ccc(CCNC(=O)c2ccccc2Sc2ccc3c(/C=C/c4ccccn4)n[nH]c3c2)cc1`: the “% inhibition” value is reported as −1%.

For `O=C(Nc1ncc([N+](=O)[O-])s1)c1ccccc1Sc1ccc2c(/C=C/c3ccccn3)n[nH]c2c1`, the “% inhibition” value was −15%.
